Structure (SMILES)	melting point
CCCCn1c(=O)[nH]c2ccc(OC)c(OC)c2c1=N	165 to 168 °C
O=C(O)c1cccnc1C(=O)c1ccccc1	115 to 121 °C
Cc1ccc(C=Cc2ccc(Br)cc2)cc1	215 °C
CCOC(=O)c1c(-c2ccc(F)cc2)cc(-c2cccc3ccccc23)nc1C(C)C	113 to 115 °C
CN(Cc1cccc2c1CN(C1CCC(=O)NC1=O)C2=O)C(=O)Nc1ccccc1 (stereo not given)	186 to 188 °C
CCOC(=O)C1=C(N=CN(C)C)NC(C)=C(C(=O)OC(C)C)C1c1ccccc1Cl (stereo not given)	138 °C
COc1cc(OC)nc(SCc2nc(C(F)(F)F)ccc2C(=O)O)n1	123 to 124 °C
CCCC1=C(C(=O)OCC)C(c2ccccc2Cl)c2c[nH]nc2N1 (stereo not given)	202 to 205 °C
Cc1ccc([C@H](CC(=O)O)NC(=O)Nc2c(O)c3ccccc3n(Cc3ccccc3Cl)c2=O)cc1	134 to 136 °C
CC1(C)CCCN(C(=O)CN(C(=O)CNC(=O)Nc2cccc(CO)c2)c2ccccc2)C1	248 °C
C=CCc1c(O)ccc2c1ccc(=O)n2CC=C(C)C	224 to 228 °C
CCCCCCCCCCCCCCCCCC(=O)OCCN1C(C)(C)CCCC1(C)C	30 °C
Cc1nn(-c2ccccn2)c2c1C(=NO)CC(C)(C)C2Br (stereo not given)	195 to 196 °C
COC(=O)C1CCN(CCc2ccc(OC)cc2)CC1	66 to 68 °C
c1ccc(C(c2ccccc2)N2CC(n3ccnn3)C2)cc1	167 to 168 °C
O=c1[nH]c2c(I)c([N+](=O)[O-])c(Cl)c([N+](=O)[O-])c2[nH]c1=O	240 to 242 °C
COC(=O)NC1=NCC(c2ccc(I)cc2)CN1 (stereo not given)	209 to 210 °C
O=C(NCCSc1ccncc1)c1ccccc1CO	132 to 133 °C
COc1ccc2c(c1)CCC(NC(C)=O)(C(=O)O)C2 (stereo not given)	252 to 254 °C
CC(C)n1cnc2c(NCc3ccccc3)nc(Cl)nc21	181 to 182 °C
CCC(CC)Cn1c(=O)c(=O)[nH]c2ccc(NC(C)=O)cc21	168 to 170 °C
CC(C(=O)NC1CC(C(=O)O)Nc2cc(Cl)cc(Cl)c21)c1ccccc1 (stereo not given)	210 to 212 °C
CC(=O)SCC(=O)Nc1ccc(C(=O)O)cc1	233 to 234 °C
CC(C)c1ccc2c(c1)[C@H]1Cc3ccccc3[C@H]1N2 (relative stereo)	104 °C
CCOC(=O)CSc1nc(Cl)cc(NN=Cc2ccc(Cl)cc2)n1	162 to 165 °C

Structure (SMILES)	melting point
COc1ccc2nc(-c3cc(C(F)(F)F)nn3-c3ccc(S(C)(=O)=O)cc3)sc2c1	217 to 218 °C
OCCCn1c(-c2c(Cl)cccc2Cl)nc(-c2ccncc2)c1-c1ccc(Cl)cc1	233 to 235 °C
Cc1cc(C=O)c(C)c(Br)c1C	108 to 110 °C
Cc1nc(C=Cc2nc3ccc(F)cc3c(=O)n2-c2ccccc2Cl)cs1	231 to 232 °C
COc1cc(Nc2c(C#N)cnc3sc(C)cc23)c(Cl)cc1Cl	179 to 181 °C
Cc1cc(Oc2cccc(C(F)(F)F)c2)nn1C(=O)Nc1ccccc1Cl	84 to 86 °C
O=C(O)COc1cccc2c1Cc1sc(S(=O)(=O)CCC(c3ccccc3)c3ccccc3)nc1-2	131 to 133 °C
CN1CCNC(=O)C1c1ccc([N+](=O)[O-])cc1 (stereo not given)	185 to 186 °C
CON(C)C(=O)Nc1c(C(=O)c2cccc(Cl)c2)[nH]c2cc(Cl)ccc12	167 to 169 °C
O=[N+]([O-])c1cnccc1NCCCCO	80 to 82 °C
CCOC(=O)c1ccccc1NC(=O)Nc1ccccc1I	162 to 164 °C
C[C@H]1CC[C@H]2C(C)(C)[C@@H](O)CC[C@]23Oc2c(c(O)cc4c2CN(C)C4=O)C[C@]13C	205 to 210 °C
COc1cc2c(c(Br)c1OC(C)=O)Sc1cc(C)ccc1N2	193 to 194 °C
O=c1[nH]cnc2c1ncn2[C@@H]1CO[C@H](CO)C1	98 °C
Cc1cc(O)c(C)c2sc(N)nc12	199 to 201 °C
CCCOC(=O)c1cc(-c2ccc(Cl)cc2)cnc1C	54 to 57 °C
Cc1ccc(-c2ccc(Cl)c(OC3SCC(O)C(O)C3O)c2)cn1 (stereo not given)	201 °C
CCOC(=O)C=Cc1cncc(OCc2ccccc2)c1	76 to 77 °C
CCCCN(CCCC)c1ccc(C=Cc2ccc(C=CC3=C(C#N)C(=C(C#N)C#N)OC3(C)C(F)(F)F)cc2)c(OC)c1 (stereo not given)	175 to 177 °C
CS(=O)(=O)c1ccc(C(=O)C2=C(O)C3CCC(C3)C2=O)c([N+](=O)[O-])c1 (stereo not given)	170 °C
CC(=O)Nc1ccc(C(=O)N2CC3CC(CN(Cc4ccccc4)C3)C2)cc1	208 °C
CC(C)CCN1CCC(N(C)S(=O)(=O)c2ccc(Nc3nccc(Nc4ccc(F)cc4)n3)cc2)CC1	184 to 185 °C
CC(C)(C)C(NC(=O)c1ccc(Cl)cc1)NC(=NC#N)Nc1cccc(C(F)(F)F)c1 (stereo not given)	184 to 186 °C
CCc1[nH]n(C2CCCC2)c2nc(Cc3ccccc3OC)nc(=O)c1-2	145 to 146 °C
C#CC1(O)C(CO)OC(n2ccc(N)nc2=O)C1O (stereo not given)	233 to 235 °C

Structure (SMILES)	melting point
CC(C)(C)OC(=O)NCC(O)(CNCC(O)C(Cc1ccccc1)NC(=O)OC(C)(C)C)Cc1ccccc1 (stereo not given)	65 to 67 °C
O=C1N(Cc2ccc(Cl)s2)c2cccc(Cl)c2C12COc1cc3c(cc12)OCO3 (stereo not given)	167 to 168 °C
CCn1c(=O)c(-c2c(Cl)cccc2Cl)cc2cnc(Nc3ccccc3)nc21	223 to 225 °C
COCC(C)(C)c1cc(N)no1	96 to 99 °C
N#Cc1c(Cl)ccc2cc(Cl)cnc12	222 °C
CCCCCc1nc2c(N)nc3c(c2n1CCCCNS(C)(=O)=O)CCCC3	167 to 168 °C
OC1C(COC2CC2)OC(n2cnc3c(NCc4cccc(I)c4)nc(Cl)nc32)C1O (stereo not given)	94 to 96 °C
O=C(O)c1cc(-c2ccccc2C(F)(F)F)nc(C(F)(F)F)c1	155 to 157 °C
CCNc1nc(Nc2ccccc2)ncc1C(=O)OCC	145 to 147 °C
CS(=O)(=O)c1nnc(C(F)F)s1	59 °C
CCOC(=O)c1c(C(Cl)Cl)nc2c(C(F)(F)F)cccc2c1O	88 °C
S=C(Nc1ccc(Cl)cc1)Nc1ncccc1OCc1ccccc1	140 to 143 °C
O=C(NCCNCCNC(=O)c1cccc2cc3ccccc3nc12)c1cccc2cc3ccccc3nc12	182 to 184 °C
COCc1ncc(Nc2ccc(Cl)cc2)nc1-n1nc(C)cc1C	147 to 151 °C
CN1CCC(N2C(=O)c3cc(Cl)ccc3Sc3ccccc32)CC1	164 to 165 °C
CC12CCC3C(CCC4CC(I)CCC43C)C1CCC2=O (stereo not given)	123 to 125 °C
CC(C)(C)c1cc(C2=CCSCC2)c(O)c(C(C)(C)C)c1	115 to 119 °C
CCN1C(=O)C(=C2C=C(N3CCCC3)CC(C)(C)C2)C(=O)N(CC)C1=S	226 to 227 °C
COc1cnn(C)c(=O)c1-c1c(C)cc(C)cc1C	186 to 192 °C
COC(=O)c1ccccc1C(=O)n1nc(O)ccc1=O	144 to 145 °C
COC(=O)C(C)(C)NC(=O)c1cc2c(n(CC3CCCCC3)c1=O)CCCCCC2	260 to 263 °C
Cc1ccc(C(=O)Cc2ccccc2)cc1	107 to 111 °C
CN(C)c1c(-c2ccccc2)sc2ccc(Cl)cc12	79 to 81 °C
Cc1nc(C(F)F)ccc1C(=O)C1=C(NS(=O)(=O)c2ccccc2)C(C)(C)C(=O)C(C)(C)C1=O	130 °C
Cc1nnc(NCCN(C)C)nc1C	46 to 49 °C

Structure (SMILES)	melting point
CCCCCCCCC(=O)Nc1cc([N+](=O)[O-])cc([N+](=O)[O-])c1	72.5 to 73 °C
CC(=O)c1ccc2c(NCc3ccc(NC(=O)c4ccc(F)cc4)cc3)nc(N(C)C)nc2c1	195 °C
CC(=O)Nc1ccc(C=C(C(=O)C2CC2)C(=O)C2CC2)cc1	166 to 167 °C
CCC(=O)Nc1c(C#N)cnn1-c1c(Cl)cc(SC(F)(F)F)cc1Cl	153 to 156 °C
COc1ccc2nc(Cl)cc(CC#N)c2c1	182 to 184 °C
CN(C)c1ccc([N+](=O)[O-])c(C(OC(=O)C(Cl)(Cl)Cl)c2ccccc2)c1[N+](=O)[O-] (stereo not given)	129 to 130 °C
NC(=O)N/N=C(/C(=O)O)c1ccc(OCCOc2ccc3ccccc3c2)cc1	204 °C
Cc1c(C(O)C2CCc3cc4ccccc4n3C2=O)ncn1C(c1ccccc1)(c1ccccc1)c1ccccc1 (stereo not given)	85 to 90 °C
Nc1c(NCc2ccccc2)ccnc1Cl	176 to 179 °C
CCOC(=O)C(CC(=S)c1ccc(-c2ccccc2)cc1)SC(C)=O (stereo not given)	71.5 to 72.5 °C
Fc1cccc(F)c1-c1nccc(-c2ccc(Br)cc2)n1	130 to 131 °C
COc1ccc(-c2cc(-c3ccccc3)[nH]c2C(=O)NCc2ccc(C(=O)Nc3ncccn3)cc2)cc1	190 to 191 °C
O=C1N(c2ccc(Br)cc2F)C(=S)C2CCCCC12O (stereo not given)	163 to 164 °C
CCc1nc(C(=O)c2ccc(Cl)cc2Cl)c(C(C)O)n1C(CC)CC (stereo not given)	125 to 126 °C
Cc1cc(OCc2oc(-c3ccc(C(F)(F)F)cc3)nc2C)ccc1CCC(=O)O	113 to 115 °C
Cn1c(C(F)F)nn(-c2cc(O)c(Cl)cc2Cl)c1=O	176 to 179 °C
O=C(O)CCc1ccc(CCNC(=O)C2Cc3ccccc3N2S(=O)(=O)c2ccc(-c3cccc(C(F)(F)F)c3)cc2)cc1 (stereo not given)	86 °C
CC(C)(C)C(=O)NCCCOc1ccncc1	71.5 to 72.5 °C
Cc1ccc(CCC(N)CC(=O)O)cc1 (stereo not given)	206 to 207 °C
COC(=O)[C@]1(OS(C)(=O)=O)C[C@H](CC(C)C)[C@@H](O)[C@H](OC(=O)c2ccccc2)C1	161 to 162 °C
CCc1nn(-c2cc(NC(=O)c3ccccc3)ccc2Cl)c(=O)n1Cc1ccc(-c2ccccc2S(=O)(=O)NC(=O)OC(C)(C)C)cc1F	79 to 81 °C
CCN(CC)CCc1c[nH]c2ccc(N(CC)S(=O)(=O)c3ccc4ccccc4c3)cc12	49 to 50 °C
OCc1cn(-c2ccc(Cl)cn2)cn1	82 to 87 °C
Cc1cc2c(s1)Oc1cccc(C)c1NC2=O	198 to 200 °C
CCCCCCC(=O)Nc1c(Sc2cc(C)cc(C)c2)c(C)c[nH]c1=O	212 to 213 °C

Reference: a melting point compilation (Tetko et al.; mined from patent text by program, amines drawn as free bases though some values may be those of a salt)
